In US10874621B2, “Cationic nanoparticles for co-delivery of nucleic acids and therapeutic agents” (The Brigham and Women's Hospital, Inc., priority 2013, dated 2020):

Experiment: Solubility of compound 1 in organic solvents
Format: physicochemical
Settings: organic solvents like DMSO and dichloromethane (DCM)

solubility in organic solvents: sufficiently soluble
Substance: cis,cis,trans-[Pt(NH3)2Cl2(OOC(CH2)8CH3)2] [Compound 1]
